# Like-named read-outs stand apart in the source and are kept apart here.
# How the values were obtained:
# HepG2-A16-CD81EGFP cells = details: for IC50: read-out: Tox_IC50, HepG2 cytotoxicity
# [1] = tested on: Plasmodium berghei (Pb-Luc) exoerythrocytic-stage parasites; details: for normalized signal at concentration 0.000508053 / normalized signal at concentration 0.00152416 / normalized signal at concentration 0.00457247 / normalized signal at concentration 0.0137174 / normalized signal at concentration 0.0411523 / normalized signal at concentration 0.123457 / normalized signal at concentration 0.37037 / normalized signal at concentration 1.11111 / normalized signal at concentration 3.33333 / normalized signal at concentration 10: fraction of control; for IC50: read-out: PbLuc_IC50
# [2] = sheet 2nd round, maximal inhibition in dose response
# [3] = sheet 2nd round, Pb-Luc exoerythrocytic stage, 10-point dose response, top concentration 10
# [4] = second series of columns (replicate)
# [5] = first series of dose-response columns
# [6] = sheet 2nd round, Broad compounds, dose response
# [7] = second series of dose-response columns
smiles,measurement,setting,value
COc1ccccc1NC(=O)N1C[C@@H]2N[C@H](C1)C2c1ccc(/C=C/c2ccccc2)cc1 (stereo partly drawn) [BRD-K72765192-019-01-4],IC50,HepG2-A16-CD81EGFP cells; sheet 2nd round,> 10 µM
same,Tox_max_inhibition (%),HepG2-A16-CD81EGFP cells; [2],5.61%
same,normalized signal at concentration 0.000508053,[1]; first series of columns,0.9244
same,normalized signal at concentration 0.00152416,[1]; first series of columns,0.9767
same,normalized signal at concentration 0.00457247,[1]; first series of columns,0.9222
same,normalized signal at concentration 0.0137174,[1]; first series of columns,1.063
same,normalized signal at concentration 0.0411523,[1]; first series of columns,0.9659
same,normalized signal at concentration 0.123457,[1]; first series of columns,0.9808
same,normalized signal at concentration 0.37037,[1]; first series of columns,1.083
same,normalized signal at concentration 1.11111,[1]; first series of columns,0.9875
same,normalized signal at concentration 3.33333,[1]; first series of columns,1.091
same,normalized signal at concentration 10,[1]; first series of columns,0.9372
same,IC50,[1]; [3],> 10 µM
same,normalized signal at concentration 0.000508053,[1]; [4],0.82
same,normalized signal at concentration 0.00152416,[1]; [4],0.9053
same,normalized signal at concentration 0.00457247,[1]; [4],1.027
same,normalized signal at concentration 0.0137174,[1]; [4],0.8721
same,normalized signal at concentration 0.0411523,[1]; [4],0.9154
same,normalized signal at concentration 0.123457,[1]; [4],0.911
same,normalized signal at concentration 0.37037,[1]; [4],1.02
same,normalized signal at concentration 1.11111,[1]; [4],0.9038
same,normalized signal at concentration 3.33333,[1]; [4],0.8733
same,normalized signal at concentration 10,[1]; [4],0.8146
same,PbLuc_max_inhibition (%),[1]; [2],19%
COc1cccc(NC(=O)N[C@@H]2CC[C@H](CC(=O)N3CCN(C)CC3)O[C@@H]2CO)c1 [BRD-K48690594-001-01-7],IC50,"HepG2-A16-CD81EGFP cells; sheet ""2nd round""",> 10 µM
same,Tox_max_inhibition (%),"HepG2-A16-CD81EGFP cells; sheet ""2nd round""",14%
same,normalised signal at concentration 0.000508053 (first series),"[1]; concentration 0.000508053, first series",0.9068
same,normalised signal at concentration 0.000508053 (second series),"[1]; concentration 0.000508053, second series",0.9275
same,normalised signal at concentration 0.00152416 (first series),"[1]; concentration 0.00152416, first series",1.012
same,normalised signal at concentration 0.00152416 (second series),"[1]; concentration 0.00152416, second series",1.043
same,normalised signal at concentration 0.00457247 (first series),"[1]; concentration 0.00457247, first series",1.046
same,normalised signal at concentration 0.00457247 (second series),"[1]; concentration 0.00457247, second series",0.8968
same,normalised signal at concentration 0.0137174 (first series),"[1]; concentration 0.0137174, first series",1.108
same,normalised signal at concentration 0.0137174 (second series),"[1]; concentration 0.0137174, second series",0.8364
same,normalised signal at concentration 0.0411523 (first series),"[1]; concentration 0.0411523, first series",0.955
same,normalised signal at concentration 0.0411523 (second series),"[1]; concentration 0.0411523, second series",1.013
same,normalised signal at concentration 0.123457 (first series),"[1]; concentration 0.123457, first series",0.854
same,normalised signal at concentration 0.123457 (second series),"[1]; concentration 0.123457, second series",0.8546
same,normalised signal at concentration 0.37037 (first series),"[1]; concentration 0.37037, first series",1.036
same,normalised signal at concentration 0.37037 (second series),"[1]; concentration 0.37037, second series",0.9102
same,normalised signal at concentration 1.11111 (first series),"[1]; concentration 1.11111, first series",1.0718
same,normalised signal at concentration 1.11111 (second series),"[1]; concentration 1.11111, second series",0.9366
same,normalised signal at concentration 3.33333 (first series),"[1]; concentration 3.33333, first series",0.8922
same,normalised signal at concentration 3.33333 (second series),"[1]; concentration 3.33333, second series",0.9328
same,normalised signal at concentration 10 (first series),"[1]; concentration 10, first series of dose columns",0.9136
same,normalised signal at concentration 10 (second series),"[1]; concentration 10, second series of dose columns",0.9502
same,IC50,"[1]; sheet ""2nd round"", Broad compounds, dose response top concentration 10",> 10 µM
same,PbLuc_max_inhibition (%),"[1]; sheet ""2nd round""",16%
CC(C)[C@H]1COCn2nncc2CCCC(=O)N1 [BRD-K14350179-001-01-1],IC50,HepG2-A16-CD81EGFP cells; sheet 2nd round,> 10 µM
same,Tox_max_inhibition (%),HepG2-A16-CD81EGFP cells; [2],5.35%
same,normalized signal at concentration 10,[1]; [5],0.98
same,normalized signal at concentration 0.000508053,[1]; first series,0.82
same,normalized signal at concentration 0.00152416,[1]; first series,0.73
same,normalized signal at concentration 0.00457247,[1]; first series,0.94
same,normalized signal at concentration 0.0137174,[1]; first series,0.81
same,normalized signal at concentration 0.0411523,[1]; first series,0.80
same,normalized signal at concentration 0.123457,[1]; first series,0.97
same,normalized signal at concentration 0.37037,[1]; first series,0.84
same,normalized signal at concentration 1.11111,[1]; first series,0.77
same,normalized signal at concentration 3.33333,[1]; first series,0.76
same,IC50,[1]; [6],> 10 µM
same,normalized signal at concentration 10,[1]; [7],1.05
same,normalized signal at concentration 0.000508053,[1]; second series,0.94
same,normalized signal at concentration 0.00152416,[1]; second series,1.04
same,normalized signal at concentration 0.00457247,[1]; second series,1.06
same,normalized signal at concentration 0.0137174,[1]; second series,0.87
same,normalized signal at concentration 0.0411523,[1]; second series,1.07
same,normalized signal at concentration 0.123457,[1]; second series,1.10
same,normalized signal at concentration 0.37037,[1]; second series,1.01
same,normalized signal at concentration 1.11111,[1]; second series,0.86
same,normalized signal at concentration 3.33333,[1]; second series,0.89
same,PbLuc_max_inhibition (%),[1]; [2],27%
C[C@H](CO)N1C[C@H](C)[C@@H](CN(C)C(=O)Nc2ccc(C(F)(F)F)cc2)Oc2c(NC(=O)c3ccc(-c4nccs4)cc3)cccc2C1=O [BRD-K70940716-001-01-0],IC50,HepG2-A16-CD81EGFP cells; sheet 2nd round,> 10 µM
same,Tox_max_inhibition (%),HepG2-A16-CD81EGFP cells; [2],7%
same,normalized signal at concentration 10,[1]; [5],1.176
same,normalized signal at concentration 0.000508053,[1]; first series,0.7879
same,normalized signal at concentration 0.00152416,[1]; first series,0.8471
same,normalized signal at concentration 0.00457247,[1]; first series,0.871
same,normalized signal at concentration 0.0137174,[1]; first series,0.8913
same,normalized signal at concentration 0.0411523,[1]; first series,0.831
same,normalized signal at concentration 0.123457,[1]; first series,0.9514
same,normalized signal at concentration 0.37037,[1]; first series,0.8506
same,normalized signal at concentration 1.11111,[1]; first series,0.9296
same,normalized signal at concentration 3.33333,[1]; first series,1.136
same,IC50,[1]; [6],> 10 µM
same,normalized signal at concentration 10,[1]; [7],1.096
same,normalized signal at concentration 0.000508053,[1]; second series,1.058
same,normalized signal at concentration 0.00152416,[1]; second series,0.9924
same,normalized signal at concentration 0.00457247,[1]; second series,0.8277
same,normalized signal at concentration 0.0137174,[1]; second series,1.075
same,normalized signal at concentration 0.0411523,[1]; second series,1.139
same,normalized signal at concentration 0.123457,[1]; second series,0.9792
same,normalized signal at concentration 0.37037,[1]; second series,1.201
same,normalized signal at concentration 1.11111,[1]; second series,1.005
same,normalized signal at concentration 3.33333,[1]; second series,1.1649
same,PbLuc_max_inhibition (%),[1]; [2],21%
CC(C)NC(=O)NCC[C@@H]1CC[C@H](NS(=O)(=O)c2ccc(Oc3ccccc3)cc2)[C@@H](CO)O1 [BRD-K66184091-001-01-6],IC50,HepG2-A16-CD81EGFP cells; sheet 2nd round,> 10 µM
same,Tox_max_inhibition (%),HepG2-A16-CD81EGFP cells; [2],7%
same,normalized signal at concentration 0.000508053,[1]; first series of columns,0.909
same,normalized signal at concentration 0.00152416,[1]; first series of columns,1.056
same,normalized signal at concentration 0.00457247,[1]; first series of columns,1.03
same,normalized signal at concentration 0.0137174,[1]; first series of columns,0.8503
same,normalized signal at concentration 0.0411523,[1]; first series of columns,0.8577
same,normalized signal at concentration 0.123457,[1]; first series of columns,0.9757
same,normalized signal at concentration 0.37037,[1]; first series of columns,0.9475
same,normalized signal at concentration 1.11111,[1]; first series of columns,1.003
same,normalized signal at concentration 3.33333,[1]; first series of columns,1.282
same,normalized signal at concentration 10,[1]; first series of columns,1.243
same,IC50,[1]; [3],> 10 µM
same,normalized signal at concentration 0.000508053,[1]; [4],0.9487
same,normalized signal at concentration 0.00152416,[1]; [4],0.9281
same,normalized signal at concentration 0.00457247,[1]; [4],0.7932
same,normalized signal at concentration 0.0137174,[1]; [4],0.7902
same,normalized signal at concentration 0.0411523,[1]; [4],0.9772
same,normalized signal at concentration 0.123457,[1]; [4],0.9341
same,normalized signal at concentration 0.37037,[1]; [4],0.8543
same,normalized signal at concentration 1.11111,[1]; [4],0.8244
same,normalized signal at concentration 3.33333,[1]; [4],0.9837
same,normalized signal at concentration 10,[1]; [4],0.9187
same,PbLuc_max_inhibition (%),[1]; [2],21%

# Source: paper PMC4890880 (ACS infectious diseases, 2016)
